Reference: PMC6263361 (Molecules, 2011)
Like-named read-outs stand apart in the source and are kept apart here. One block for each molecule: values may come before it.

Experiments:
GST-E2F-4 = molecular target: T1, GST-E2F-4 (Homo sapiens, UniProt Q16254); experiment: SPR interaction analysis with immobilized recombinant GST-E2F-4; type: binding; conditions: for affinity for E2F-4, fold weaker than that of etoposide: relative to etoposide
T1 construct: The 1239-bp cDNA fragment of E2F-4 was amplified from I.M.A.G.E cDNA clone; made in house; host or cells: E. coli BL21(DE3)pLysS
T1 sequence (Q16254 whole entry, the tested form may be a part): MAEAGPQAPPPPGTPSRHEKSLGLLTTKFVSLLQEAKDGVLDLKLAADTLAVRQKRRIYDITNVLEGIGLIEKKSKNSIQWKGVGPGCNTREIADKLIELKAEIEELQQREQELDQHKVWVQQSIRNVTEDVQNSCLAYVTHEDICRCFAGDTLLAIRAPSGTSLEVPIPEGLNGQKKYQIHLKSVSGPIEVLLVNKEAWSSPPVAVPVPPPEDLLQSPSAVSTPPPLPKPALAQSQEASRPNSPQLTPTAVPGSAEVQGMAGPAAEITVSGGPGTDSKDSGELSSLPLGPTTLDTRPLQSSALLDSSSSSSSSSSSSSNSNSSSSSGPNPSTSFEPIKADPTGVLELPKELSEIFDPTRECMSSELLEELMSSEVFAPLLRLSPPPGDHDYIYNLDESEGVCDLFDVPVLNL
From the text: (§1) The gene encoding E2F-4 protein was engineered into an E. coli expression system as a GST fusion protein (GST-E2F-4) and purified by affinity interaction using glutathione Sepharose beads. The GST-E2F-4 was immobilized on a CM5 sensor chip using the same procedure as described for the synthetic ETBP.
The 1239-bp cDNA fragment of E2F-4 was amplified from I.M.A.G.E cDNA clone (clone ID CL0B005ZB12, Invitrogen) by PCR with the primers 5’-[…]-3’ (up) and 5’-[…]-3’ (down) and subcloned into pGEM-T vector (Promega). Following purification and digestion with EcoRI and XhoI, the cDNA fragment was subcloned into the expression vector pET28a(+) (Novagen). The construct was transformed into E. coli BL21(DE3)pLysS (Novagen). Heterologous gene expression was induced by addition of 0.1 mM isopropyl β-D-1-thiogaractopyranoside (IPTG). The culture was continued at 37 °C with vigorous shaking for 1 h. The cells were then harvested and suspended in binding buffer (0.5 M NaCl, 5 mM 2-mercaptoethanol in 50 mM sodium phosphate, pH 7.5). Following sonication and centrifugation the soluble fraction was obtained and purified using the FPLC instrument and GSTrap column (1 mL, GE Healthcare) and then subjected to kinetic analysis by SPR. The purified GST-E2F-4 in resulting fraction was detected by a SDS-PAGE followed by CBB staining or Western blotting using rabbit anti-GST (primary) and anti-rabbit IgG-AP conjugate (secondary) antibodies (Sigma-Aldrich) with BCIP/NBT solution.
(§2) Analysis of binding between etopside and synthetic ETBP or recombinant GST-E2F-4 was performed with a surface plasmon resonance (SPR) biosensor (Biacore®3000, GE Healthcare). The synthetic ETBP or protein dissolved in each buffer (ETBP16: 10 mM acetate buffer, pH 4.0−10% DMSO; ETBP10, HG102: 10 mM carbonate buffer, pH 8.5; protein: 10 mM acetate buffer, pH 4.0) was injected over a CM5 sensor chip at 10 µL/min and captured on the carboxymethyl dextran matrix via an amine coupling reaction. The surface was activated by injecting a solution containing 200 mM EDC and 50 mM NHS for 14 min. The protein or peptide was injected and the surface was then blocked by injecting 1 M ethanolamine at pH 8.5 for 14 min. […] BIAevaluation 3.2 software (GE Healthcare) was used to determine the kinetic parameters.

CHO-K1 cells = experiment: MTS assay of cell proliferation; type: cell-based; conditions: concentrations used in the reporter assay; data not shown
E2F-4/DP1 = molecular target: T2, E2F-4/DP1 (Homo sapiens, UniProt Q16254); experiment: Luciferase reporter gene assay, E2F-4/DP1 expressing CHO-K1 cells; type: cell-based; conditions: 15 h incubation, read-out: IC50 of reporter gene transcription, E2F-4/DP1
T2 construct: expressed in transfected cells; host or cells: CHO-K1
T2 sequence (Q16254 whole entry, species assumed): as the sequence (Q16254 whole entry, the tested form may be a part) above
From the text: (§3) E2F-4 functions as a transcription factor, forming a heterodimeric complex with DP via the DP binding domain (G86-I181) (Figure 9).
(§4) The vectors (pCMV-E2F-4, pCMV-DP1, pCMV-DP2) for the luciferase reporter gene assay were kindly provided by Dr. Junji Magae (Institute of Research and Innovation (IRI), Kashiwa, Chiba, Japan) The reporter gene plasmid (pGL3-GC box) was constructed by insertion of double stranded DNA with XhoI and HindIII site, which was generated by an annealing of 60 pmol of oligonucleotides 5’-[…]-3’ and 5’-[…]-3’ into pGL3 vector (Promega). Transfection was then performed using Lipofectamine 2000 (Invitrogen) in a 96-well format according to the manufacturer’s instructions (Invitrogen).

[1] = tested on: control peptide HG102 (SGVMLGDPN); experiment: SPR interaction analysis between etoposide and control peptide HG102; type: binding; conditions: etoposide 3.2-80 µM injected
Description: Synthetic ETBP16 or ETBP10 was immobilized on a CM5 censor chip by an amine coupling reaction. […] By contrast, no response was observed against a control peptide HG102 ([…]).
Analysis of binding between etopside and synthetic ETBP or recombinant GST-E2F-4 was performed with a surface plasmon resonance (SPR) biosensor (Biacore®3000, GE Healthcare). The synthetic ETBP or protein dissolved in each buffer (ETBP16: 10 mM acetate buffer, pH 4.0−10% DMSO; ETBP10, HG102: 10 mM carbonate buffer, pH 8.5; protein: 10 mM acetate buffer, pH 4.0) was injected over a CM5 sensor chip at 10 µL/min and captured on the carboxymethyl dextran matrix via an amine coupling reaction. The surface was activated by injecting a solution containing 200 mM EDC and 50 mM NHS for 14 min. The protein or peptide was injected and the surface was then blocked by injecting 1 M ethanolamine at pH 8.5 for 14 min. This reaction immobilized 1279 resonance units (RU) of ETBP16, 3400 RU of ETBP10, 350 RU of HG102, 11421 RU of GST-E2F-4, 4388 RU of GST, and 7500 RU of top II (usb). […] BIAevaluation 3.2 software (GE Healthcare) was used to determine the kinetic parameters.

GST = GST (Schistosoma japonicum, UniProt P08515); experiment: SPR interaction analysis with immobilized GST tag alone; type: binding; conditions: etoposide 2.5-100 µM injected
Chain of GST (P08515 whole entry): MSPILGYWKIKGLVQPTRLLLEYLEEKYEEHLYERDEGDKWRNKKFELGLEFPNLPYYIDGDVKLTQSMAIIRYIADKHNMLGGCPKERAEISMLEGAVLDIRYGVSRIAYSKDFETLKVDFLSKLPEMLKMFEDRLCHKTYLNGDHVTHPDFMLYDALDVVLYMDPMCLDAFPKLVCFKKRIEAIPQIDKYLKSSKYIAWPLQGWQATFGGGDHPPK
Description: as §1, §2

E2F-4/DP2 = molecular target: T3, E2F-4/DP2 (Homo sapiens, UniProt Q16254); experiment: Luciferase reporter gene assay, E2F-4/DP2 expressing CHO-K1 cells; type: cell-based; conditions: 15 h incubation, read-out: IC50 of reporter gene transcription, E2F-4/DP2
T3 construct: expressed in transfected cells; host or cells: CHO-K1
T3 sequence (Q16254 whole entry, species assumed): as the sequence (Q16254 whole entry, the tested form may be a part) above
From the text: as §3, §4

[2] = SPR, read-out: KD between GST-E2F-4 and each compound

affinity for E2F-4, fold weaker than that of etoposide (GST-E2F-4; SPR): nine
Kd (GST-E2F-4; [2]): 654 µM
Structure (SMILES): COc1cc([C@@H]2c3cc4c(cc3[C@@H](O[C@@H]3O[C@@H]5CO[C@@H](c6cccs6)O[C@H]5[C@H](O)[C@H]3O)[C@H]3COC(=O)[C@H]23)OCO4)cc(OC)c1O [Teniposide, teniposide]

Structure (SMILES): COc1cc([C@@H]2c3cc4c(cc3[C@H](O)[C@H]3COC(=O)[C@H]23)OCO4)cc(OC)c1OC [Podophyllotoxin, podophyllotoxin]
Kd (GST-E2F-4): 308 µM
affinity for E2F-4, fold weaker than that of etoposide (GST-E2F-4; SPR): approximately four

Kd (GST-E2F-4; [2]): 75 µM
IC50 (E2F-4/DP1): 1.56 µM
SPR response against GST tag alone (GST): did not show any response
IC50 (E2F-4/DP2): 1.16 µM
Structure (SMILES): COc1cc([C@@H]2c3cc4c(cc3[C@@H](O[C@@H]3O[C@@H]5CO[C@@H](C)O[C@H]5[C@H](O)[C@H]3O)[C@H]3COC(=O)[C@H]23)OCO4)cc(OC)c1O [Etoposide]
effect in terms of cell growth in MTS assay (CHO-K1 cells): no effect
SPR response against control peptide HG102 [1]: no response

SPR response against GST-E2F-4 (GST-E2F-4; in the concentration range tested): no response
Structure (SMILES): COc1cc(C(=O)O)cc(OC)c1O [Syringic acid]
